Experimental data reported in patent US9259416B2, “Pyrazolone compounds useful for treatment of cerebrovascular disorders associated with ischemic stroke” (MITSUBISHI TANABE PHARMA CORPORATION, priority 2004, dated 2016).

Tests used:
[1] = system: monkey middle cerebral artery occlusion; test: Dose response test with monkey (middle cerebral artery occlusion, infarct); type: in vivo, croo monkey; details: Edaravone administered groups (0.1-0.4 mg/kg loading + 0.5-2.0 mg/kg/hr maintenance i.v.), 28 hours after occlusion
Description: A croo monkey (3 years to 5 years old) was subjected to […], and then its body temperature was kept at around 37° C. The middle cerebral artery at around the branch of the left internal carotid artery was exposed, and the middle cerebral artery was occluded by electrocoagulation. Then, the administration was started as in Table 6. 28 hours after occlusion (just after administration), the whole brain was removed under deep anesthesia by excess pentobarbital administration, and coronary brain sections each having a thickness of 4 mm were cut out of the forehead. The brain sections were stained with 1 w/v % 2,3,5-triphenyltetrazolium chloride, and the infarct area was measured to calculate the infarct volume.
In the drug administered groups other than the solvent group, Edaravone was used as the drug and this was administered as in Table 6.

[2] = system: rat middle cerebral artery occlusion and reperfusion model; test: Cerebral edema in rat middle cerebral artery occlusion and reperfusion model; type: in vivo, Wistar rats
Description: After eight weeks to nine weeks old Wistar rats (220 to 260 g) were subjected to inhalation anesthesia with halothane, the inhalation anesthesia with 1% halothane (anesthesia; nitrous oxide: oxygen=7:3) was continued while fixing them in a dorsal position and maintaining their body temperature at around 37° C. In an infusion administration group and a bolus+infusion administration group, a catheter was placed in the femora vein. The right common carotid artery, external carotid artery and internal carotid artery were exposed and the common carotid artery and external carotid artery were ligated in order to occlude the middle cerebral artery. From the common carotid artery, a No. 4 nylon suture (plug) was inserted to occlude the middle cerebral artery. Three hours after occlusion of the middle cerebral artery, the plug was taken out from the common carotid artery and perfusion of the middle cerebral artery was resumed, and then the administration was started as in Table 3. Decapitation and surgical removal of the brain were performed three hours after reperfusion. After separation of the right and left cerebral cortex, the wet weight was measured. After drying at 130° C. for 24 hours, the dry weight was determined. A percentage water content was calculated in accordance with the following equation: (wet weight (g)−dry weight (g))/wet weight (g)×100. The constitution and dose of each group are shown below in Table 3. It is to be noted that to the drug administered groups other than the control group, Edaravone was administered as a drug in accordance with Table 3.

[3] = system: rat middle cerebral artery occlusion; test: Dose response test with rat (middle cerebral artery occlusion/reperfusion, infarct); type: in vivo, Crj:CD(SD) male rats
Description: Seven weeks to eight weeks old Crj:CD(SD) male rats (190 to 250 g) were subjected to anesthesia with isoflurane, and were fixed in a dorsal position with their body temperature kept at around 37° C. A catheter for drug administration was placed in the cervical vein. The right common carotid artery, external carotid artery and internal carotid artery were exposed and the common carotid artery and external carotid artery were ligated in order to occlude the middle cerebral artery. From the branch of the external carotid artery and the internal carotid artery, a silicone-coated No. 4 nylon suture (plug) was inserted to occlude the middle cerebral artery. Two hours after occlusion of the middle cerebral artery, the plug was taken out and perfusion of the middle cerebral artery was resumed, and then the administration was started as in Table 5. Decapitation and surgical removal of the brain were performed 24 hours after reperfusion. Five brain sections each having a thickness of 2 mm (from the bregma part, from 2 mm before and behind parts of the bregma, and from 4 mm before and behind parts of the bregma) were prepared. The brain sections were stained with 1 w/v % 2,3,5-triphenyltetrazolium chloride, and the infarct area was measured to calculate the infarct volume. […]

rat serum proteins = details: cited from earlier work
human serum proteins = details: cited from earlier work

Compound: CC1=NN(c2ccccc2)C(=O)C1 [Edaravone, 1-phenyl-3-methyl-2-pyrazolin-5-one]
- infarct volume compared with control group [1]: small
- increase in percentage water content of cortex ([2]; bolus group, 3 mg/kg i.v. immediately after reperfusion, brain removed 3 h after reperfusion): almost equal
- increase in percentage water content of cortex ([2]; bolus+infusion group, 0.2 mg/kg i.v. + 1 mg/kg/hr i.v. for 2.75 hours): lowest
- increase in percentage water content of cortex ([2]; infusion group, 1 mg/kg/hr i.v. for 3 hours after reperfusion): almost equal
- infarct area ([3]; 0.1 mg/kg+0.5 mg/kg/hr i.v., P<0.05 vs physiological saline): significantly decreased
- infarct volume compared with control group ([3]; Edaravone administered groups (0.05-0.2 mg/kg loading + 0.25-1.0 mg/kg/hr maintenance i.v.), 24 hours after reperfusion): small
- binding ratio with serum proteins (rat serum proteins): 85.8%
- binding ratio with serum proteins (human serum proteins): 91.9%
